Experiment [1] concerns the target T1, KCR.Fc (Mus musculus, UniProt P70194).
T1 construct: the extracellular domains of DVLR1/CLEC5A (MDL-1), Dectin-1, KCR, and DC-SIGN (as a positive control) were fused to the Fc portion of human IgG1; made in house; host or cells: 293-F (FreeStyle 293) cells
T1 sequence (P70194 70-548 limits assumed): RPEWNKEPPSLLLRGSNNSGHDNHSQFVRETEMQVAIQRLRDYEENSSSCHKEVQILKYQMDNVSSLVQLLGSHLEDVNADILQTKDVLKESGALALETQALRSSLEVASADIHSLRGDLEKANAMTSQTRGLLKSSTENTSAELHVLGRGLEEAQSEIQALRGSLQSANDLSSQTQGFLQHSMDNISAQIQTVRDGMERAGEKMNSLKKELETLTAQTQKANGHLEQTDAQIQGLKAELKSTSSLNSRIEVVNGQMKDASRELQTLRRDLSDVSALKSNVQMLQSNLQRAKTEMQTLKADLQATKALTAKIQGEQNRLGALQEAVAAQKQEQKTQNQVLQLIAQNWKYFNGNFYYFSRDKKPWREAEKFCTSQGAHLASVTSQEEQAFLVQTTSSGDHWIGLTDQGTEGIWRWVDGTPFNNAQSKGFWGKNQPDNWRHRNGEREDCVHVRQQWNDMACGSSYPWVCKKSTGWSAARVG
The experiment in a line: Immunosorbent dot binding assay with KCR.Fc. To be noted: polysaccharide immobilized on PVDF membrane; receptor.Fc 1 μg/mL.

Experiment [2] deals with T2, DC-SIGNR.Fc (Homo sapiens, UniProt Q9H2X3).
T2 construct: The extracellular domains of lectin receptors, TREMs and TLTs were cloned by the reverse-transcriptase polymerase chain reaction (RT-PCR); made in house; host or cells: 293-F (FreeStyle 293) cells
T2 sequence (Q9H2X3 71-399): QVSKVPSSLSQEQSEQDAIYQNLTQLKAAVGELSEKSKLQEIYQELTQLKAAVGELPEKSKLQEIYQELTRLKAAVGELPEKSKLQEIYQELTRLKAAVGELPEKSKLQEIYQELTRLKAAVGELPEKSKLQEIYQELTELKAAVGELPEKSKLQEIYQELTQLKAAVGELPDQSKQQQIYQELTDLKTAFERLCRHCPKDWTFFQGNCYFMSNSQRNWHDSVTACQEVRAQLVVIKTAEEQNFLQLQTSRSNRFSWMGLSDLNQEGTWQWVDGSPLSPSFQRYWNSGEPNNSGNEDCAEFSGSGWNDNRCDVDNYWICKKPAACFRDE
As to the kind of experiment: Immunosorbent dot binding assay with DC-SIGNR.Fc. To be noted: polysaccharide immobilized on PVDF membrane; receptor.Fc 1 μg/mL.

For experiment [3], the target named is T3, CLEC-6 (Homo sapiens, UniProt Q8WXI8).
T3 construct: The extracellular domains of lectin receptors, TREMs and TLTs were cloned by the reverse-transcriptase polymerase chain reaction (RT-PCR); made in house; host or cells: 293-F (FreeStyle 293) cells
T3 sequence (Q8WXI8 39-215 limits assumed): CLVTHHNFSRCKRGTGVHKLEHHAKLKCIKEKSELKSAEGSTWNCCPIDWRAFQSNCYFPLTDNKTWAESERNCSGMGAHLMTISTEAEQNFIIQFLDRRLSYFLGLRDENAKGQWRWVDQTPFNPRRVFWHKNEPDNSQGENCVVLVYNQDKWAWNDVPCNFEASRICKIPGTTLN
The experiment in a line: Sugar competition EIA, Fc.CLEC-6 binding to GLPS-F3. To be noted: sugar 1 mg/ml. On the procedure: The interaction between GLPS-F3 and receptor.Fc was then tested. Unbiotinylated GLPS-F3 was immobilized at 100 ng/well as described above, and 100 μL receptor.Fc fusion protein (1 μg/ml in 2 mM MgCl2/2 mM CaCl2/1% BSA/TBST) was added into each well and incubated for 1 hour at room temperature. After washing with TBST, wells were incubated with peroxidase-conjugated goat anti-human IgG Ab (1:5000 dilution, Jackson ImmunoResearch Laboratories) in blocking buffer at room temperature for 30 min. Wells were incubated with 100 μL TMB substrate for 15 min after TBST washing and read at 450 nm in a Fusion plate reader (Perkin Elmer). The results were normalized with respect to Fc.Dectin-1 binding (Dectin-1 is a known lectin receptor that binds to β-1,3-glucan which is the backbone found in GLPS-F3). FIG. 6B depicts in graphical form the affinity of each receptor for GLPS-F3 relative to Dectin-1. […] There was also weaker but positive GLPS-F3 binding ability (25-50% binding intensity compared to Fc.dectin-1) found in Fc.NKG2D, Fc.MINCLE, Fc.mKCR, DCAL1.Fc, DEC205.Fc, Endo180.Fc and NKp30(NCR3).Fc.
To understand the interaction of GLPS-F3 with specific innate immunity receptors, the polysaccharides mannan and β-glucan and the monosaccharides D-mannose (Man), D-glucose (Glc), N-acetyl-glucosamine (GlcNAc), D-galactose (Gal), N-acetyl-galactosamine (GalNAc), L-fucose (Fuc) and sialic acid, were used in a competition assay. […] The assays were carried out as in Example 9, with the addition of 1 mg/ml of each polysaccharide or monosaccharide.

In experiment [4] the target is T4, DVLR1/CLEC5A (Homo sapiens, UniProt Q9NY25).
T4 construct: expressed in transfected cells; host or cells: 293T cells
T4 sequence (Q9NY25 1-187 isoform Q9NY25-2): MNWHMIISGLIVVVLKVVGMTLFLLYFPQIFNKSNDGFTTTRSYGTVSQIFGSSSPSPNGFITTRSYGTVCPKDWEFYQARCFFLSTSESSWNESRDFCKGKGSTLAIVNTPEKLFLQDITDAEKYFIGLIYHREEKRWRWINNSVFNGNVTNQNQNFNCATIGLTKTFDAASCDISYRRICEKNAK
As to the kind of experiment: Sugar competition, biotinylated DV binding to DVLR1/CLEC5A-transfected 293T cells. The class given is cell-based. The note with it: flow cytometry. As to the method: In FIG. 16b, complexes of DV (5×10^6 PFU) with receptor.Fc (5 μg) were immunoprecipitated and detected on westerns with mAb to DV envelope (E) protein. […] FIGS. 16d and 16e show sugar competition assays wherein both DC-SIGN (CLEC4L) and DVLR1/CLEC5A increase DV binding to human 293T cells (FIG. 16d), while addition of sugars inhibits biotinylated DV binding to DC-SIGN- (left panel) or DLVR1/CLEC5A- (right panel) transfected 293T cells in a dose-dependent manner as determined by flow cytometry (FIG. 16e). According to FIG. 16e, MFI represents mean fluorescence intensity. Units (U) for monosaccharide (mannose and fucose) and polysaccharide (mannan) are mM and mg/ml, respectively. […] Data are expressed as the mean±s.d. of three independent experiments. Two-tailed, Student's t-tests were performed.
There are two conserved N-linked glycosylation sites at Asn-67 and Asn-153 of E protein (Pokidysheva, E. et al., Cell 124:485-93 (2006)), and the attached glycans (with terminal fucose and mannose) have been implicated in cellular attachment and viral entry (Modis, Y. et al., J. Virol. 79:1223-1231 (2005)). To investigate the participation of glycans in the association of DVLR1/CLEC5A with DV, virions were incubated with fucose, mannose, or mannan; where the last two sugars are the ligands for DC-SIGN (Mitchell et al., J. Biol. Chem. 276: 28939-28945 ([…])).

β-1,3-glucan [b-glucan]: in experiment [1], the “interaction with KCR.Fc in dot-binding assay” value is given as “only Dectin-1.Fc can bind”. Besides, the “interaction with DC-SIGNR.Fc in dot-binding assay” value in experiment [2] was “only Dectin-1.Fc can bind”. In experiment [3], the “Percentage of binding of CLEC-6 Fc fusion to GLPS-F3 relative to binding in absence of sugar competitor” value was 98 ± 7.3%.

For the molecule mannan, the “Percentage of binding of CLEC-6 Fc fusion to GLPS-F3 relative to binding in absence of sugar competitor” value in experiment [3] stood at 75 ± 0.8%. Besides, the “inhibition of binding of DVLR1/CLEC5A to DV” value in experiment [4] was “to a lesser extent”.

For the molecule `C[C@H](O)[C@@H](O)[C@@H](O)[C@H](O)C=O` [Fuc, L-fucose], the “Percentage of binding of CLEC-6 Fc fusion to GLPS-F3 relative to binding in absence of sugar competitor” value in experiment [3] amounted to 82 ± 6.5%. Also, the “inhibition of binding of DVLR1/CLEC5A to DV” value in experiment [4] is on record as “significantly reduced”.

Source of the values: patent publication US8460669B2, “Compositions and methods for identifying response targets and treating flavivirus infection responses” (Academia Sinica, priority 2005, dated 2013).
